Ends that are not written are not given here.
How the values were obtained:
P388R cells = settings: mice, same cancer model, 100 mg/kg/day (Pierré et al. 1992); cited from earlier work
[1] = trials for treatment of multidrug resistance (Stupp et al. 1998); cited from earlier work
cancer cells = settings: by means of an increase in the invasive potential of the cancer cells; cited from earlier work
mice = assay: Immunogenicity of di- and tetrapalmitoylated conjugates in liposomes: antibody detection by Dot Blot and antibody titer; assay type: in vivo
Excerpt: In order to further understand the degree of immunogenicity of the conjugates according to the invention, two types of conjugates were produced and tested. The first type of conjugate corresponds to the synthetic sequences of the peptides derived from the extracellular loops of the murine P-170 protein, covalently coupled to four molecules of fatty acid containing a carbon chain of between C12 and C24, per molecule of peptide. The second type of conjugate is made up of a peptide coupled only to two molecules of fatty acid. This study is illustrated by means of a specific example of dipalmitoylated and tetrapalmitoylated conjugates.
Table III describes the sequences of the di- and tetrapalmitoylated conjugates corresponding to loops 1, 2 and 4 of the murine P-170 protein and also their immunogenic capacity measured through the detection of antibodies by the Dot Blot technique and also the antibody titer by fluorescence units. […] The mpp4 and mpp2 conjugates engender an immune response with an antibody titer in the region of 400 fluorescence units. […] In fact, the synthesis of this loop is very hard and long since there are many possible chemical terminations, or chemical rebridging which could explain the lack of immune response of this first batch of peptides. For the animal immunization trials, a further synthesis of the peptides, in particular of loop 1, was therefore carried out.
The conjugates according to the invention serving as antigenic molecules, diluted in PBS, are firstly deposited at ambient temperature onto nitrocellulose membranes. After 30 minutes, these antigenic molecules are blocked with 3 ml of a solution containing PBS-5% skim milk. The membranes are incubated for 2 hours at ambient temperature, without washing, with 24 μl of murine serum prediluted volume-for-volume with PBS, in 2 ml of PBS containing 1% of skim milk and 0.1% of tween 20. Said murine serum was taken during a period of 15 to 45 days after the third immunization. After three washes in PBS-1% skim milk-0.1% tween 20, the membranes are sequentially incubated for 1 hour at ambient temperature, in 3 ml of PBS-1% skim milk-0.1% tween 20 containing the peroxydase anti-mouse secondary antibody diluted to 1/3000, and then after 2 washes, in 3 ml of PBS-1% skim milk-0.1% tween 20. The membranes are then washed once for 10 minutes in PBS alone and kept in a refrigerator at 4° C. overnight, in 500 μl of PBS. A chemoluminescence peroxydase substrate (ECL™ kit, […] Pharmacie Biotech) is deposited at the surface of the membranes (0.125 ml/cm^2), and left for one minute, and the membranes are then drained off and placed in a “cold” cassette between 2 films of Saran®. The membranes are immediately exposed by autoradiography, the emitted light resulting from the reaction of oxidation of the luminol by the peroxydase being collected on KODAK X-OMAT films with varying times from a few minutes to 1 hour, depending on the strength of the signal. The antibody titers are estimated using a densitometer suitable for the above system. The sensitivity of the chemoluminescence reaction has a threshold for detection of the induced antibodies evaluated at 0.2 ng/ml under the experimental conditions.

B6D2F1 mice = assay: Immune response in vivo in B6D2F1 mice immunized with the vaccine preparations (anti-mpp1, mpp2, mpp4 antibody isotypes, Dot Blot); settings: further synthesis of the peptide; compared with mpp2 and mpp4
Protocol: The mice were immunized three times, two weeks apart, by intraperitoneal injection with 200 μl of vaccine composition. This experimental protocol is carried out for the four preparations on groups of nine B6D2F1 mice (Iffa Credo, L'Arbresle, France).
To quantify by Dot Blot the various immunoglobulins induced by the immunization, 100 μl of blood were taken, from each mouse, from the retroorbital sinus one day before the booster and 15 days after the final injection. Each blood sample was then centrifuged and the serum isolated was used for the quantification.
The conjugates according to the invention serving as antigenic molecules, diluted in PBS, are firstly deposited at ambient temperature onto nitrocellulose membranes. After 30 minutes, these antigenic molecules are blocked with 3 ml of a solution containing PBS-5% skim milk. The membranes are incubated for 2 hours at ambient temperature, without washing, with 24 μl of murine serum prediluted volume-for-volume with PBS, in 2 ml of PBS containing 1% of skim milk and 0.1% of tween 20. Said murine serum was taken during a period of 15 to 45 days after the third immunization. […] The sensitivity of the chemoluminescence reaction has a threshold for detection of the induced antibodies evaluated at 0.2 ng/ml under the experimental conditions. […]

[2] = mice injected with liposomes containing the conjugate, first peptide synthesis

C=CCNc1nc(NCC=C)nc(N2CCC(NCC(c3ccc(F)cc3)c3ccc(F)cc3)CC2)n1 [S9788, 6-[4-[2,2-di-(4-fluorophenyl)ethylamino]-1-piperidinyl]-N,N′-di-2-propenyl-1,3,5-triazine-2,4-diamine]
increase in survival (P388R cells): 49%
toxicity limiting use in clinical trials [1]: cardiac toxicity, ventricular arrhythmia and torsade de pointe

OCCN1CCN(CC/C=C2\c3ccccc3Sc3ccc(C(F)(F)F)cc32)CC1 [trans-flupenthixol]
effect on mortality (cancer cells): can accelerate mortality

G-KVLTSFTNKELQAYAK-G-K-NH2 (GKVLTSFTNKELQAYAKGK-NH2; also: two palmitic acids; listed as Mus musculus) [mpp′2]
Ac titer fluorescence (mice; [2]): <10 fluorescence units

G-SRDDDMETKRQNEN-G-K-NH2 (GSRDDDMETKRQNENGK-NH2; also: two palmitic acids; listed as Mus musculus) [mpp′4]
Ac titer fluorescence (mice; [2]): 100 fluorescence units
antibody titer relative to the titer induced by mpp4 (mice; same sequence with two versus four palmityl residues): four times lower

K-G-GNMTDSFTKAEASILPSITNQSGPNSTLIISNSSLEEE-G-K-K-NH2 (KGGNMTDSFTKAEASILPSITNQSGPNSTLIISNSSLEEEGKK-NH2; also: four palmitic acids; listed as Mus musculus) [mpp1]
Ac titer fluorescence (mice; [2]): <10 fluorescence units
Detection of antibodies by Dot Blot (mice; [2]): no antibody was detected
antibody titers induced by the conjugate (B6D2F1 mice): significant and comparable in value to the antibody titers detected for the mpp2 and mpp4 conjugates
